We go through two molecules from patent US7294491B2 (Ajinomoto Co., Inc., priority 2003, dated 2007).

The nature of series [1]: precipitation concentration (super solubility) of L-glutamic acid in culture medium at pH 4.5 with added L-lysine. It counts as physicochemical, Pantoea ananatis AJ13601. As to conditions: pH 4.5 culture.
Experimental: Cells of the Pantoea ananatis AJ13601 strain cultured at 30° C. for 14 hours in the LBG agar medium (10 g/L of trypton, 5 g/L of yeast extract, 10 g/L of NaCl, 15 g/L of agar) containing 25 mg/L of tetracycline hydrochloride and 25 mg/L of chloramphenicol were scraped from one plate and inoculated into 300 ml of seed culture medium having the following composition and contained in a 1 L-volume jar fermenter, and seed culture was performed at 34° C. and pH 6.0.
The pH was adjusted to 6.0 by adding ammonia gas during the culture. The seed culture was finished by observing depletion of the saccharide in the medium as an index, and the seed culture medium of 20% volume of the main culture medium was inoculated into 300 ml of the main culture medium contained in a 1 L-volume jar fermenter to perform the main culture under the conditions of 34° C. and pH 4.5. The composition of the main culture medium is shown below.
The pH was adjusted to 4.5 by adding ammonia gas during the culture. After the saccharide in the medium was consumed and depleted, 700 g/L of glucose aqueous solution was continuously added (6 ml/hr).
The liquid supernatant of the culture medium was obtained by centrifuging the culture medium at 10000×G for 1 minute. The polymorphism of crystals which precipitated in the culture medium was determined by microscopic observation.
The nature of series [2]: crystal form of L-glutamic acid crystals precipitated in a cooling-crystallization system with added amino acid. It is filed as physicochemical. As to conditions: FIG. 7.

As to `NCCCC[C@H](N)C(=O)O` [L-lysine], the “concentration of added L-lysine above which α-form crystals form naturally without seed crystals” value in series [1] is given as “exceeds 900 mg/L”. For the same molecule, in series [2] (pH 4.5, super saturation 2, 34° C.), the “control of precipitated L-glutamic acid crystal form by added amino acid” value is “could be controlled to the α-form”.

For `N[C@@H](Cc1ccccc1)C(=O)O` [L-phenylalanine], the “control of precipitated L-glutamic acid crystal form by added amino acid” value in series [2] (pH 3.2, super saturation 2, 34° C.) was “showed the same effect”; in series [2] (pH 4.5 or more, super saturation 2, 34° C.), “such an effect could not be observed”.
